{"source": "patent US20250313530A1", "about": "“SMALL MOLECULE INHIBITORS OF INTERLEUKIN-4 AND USES THEREOF” (Trustees of Boston University, priority 2024, published 2025)", "key": {"IL-13": {"target": "IL-13 (Homo sapiens, UniProt P35225)", "sequence (P35225 25-146)": "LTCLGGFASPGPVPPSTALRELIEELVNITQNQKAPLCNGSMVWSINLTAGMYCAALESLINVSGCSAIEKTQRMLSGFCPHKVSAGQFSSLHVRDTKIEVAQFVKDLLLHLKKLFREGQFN", "experiment": "HEK-Blue IL-4/IL-13 reporter assay, IL-13 inhibition", "format": "cell-based", "conditions": "soluble IL-13 mediated signaling, HEK Blue IL-4/IL-13 reporter assay", "method": "Prior to screening. […] The solution was added to preincubated cells in a 96-well culture plate. The supernatant was then incubated with Quanti-Blue dye for 3 hours and absorbance was measured at 650 nm. Data was analyzed and plotted using GraphPad Prism 9.2.0."}, "soluble IL-4": {"target": "T1, soluble IL-4 (Homo sapiens, UniProt P05112)", "T1 sequence (P05112 25-153)": "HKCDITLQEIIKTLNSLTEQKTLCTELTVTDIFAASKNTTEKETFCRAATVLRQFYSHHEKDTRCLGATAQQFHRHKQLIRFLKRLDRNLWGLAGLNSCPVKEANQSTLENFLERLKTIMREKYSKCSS", "experiment": "Differential scanning fluorimetry (thermal shift), IL-4", "format": "binding", "method": "DSF was performed using BioRad CFX384."}, "[1]": {"tested_on": "IL-4 induced STAT-6 phosphorylation in THP-1 monocytes (type II IL-4 receptor)", "experiment": "THP-1 STAT-6 phosphorylation assay (western blot)", "format": "cell-based", "method": "THP-1 cells were received as a gift from the laboratory of Dr. Mark Grinstaff and maintained in RMPI-1640 with […] heat-inactivated Fetal Bovine Serum and 50 μM beta-mercaptoethanol. Cells used for assays were between passages 6 and 10, 10 ng/mL IL-4 was preincubated with experimental sample (vehicle or analogs) for 30 minutes at 37° C. 1 mL of each solution was then added to a pellet of 2 E6 THP-1 cells and pipetted up and down. THP-1 cells were incubated for 30 minutes in the incubator at 37 C/5% CO2. Cells were then spun down and lysed with 200 μL ice-cold RIPA buffer complete with phosphatase and protease inhibitors. Cell lysates were incubated on ice for 30 minutes, spun down and the supernatants were stored at −20° C. until western blot analysis. Undiluted cell lysates were run on SDS-PAGE and transferred to Immunoblot PVDF membrane using Biorad equipment. Membranes were incubated with 1:1000 primary antibody overnight at 4° C. Membranes were then incubated with 1:50,000 dilution secondary for 1 hour at room temperature. Membranes were then exposed to Femto ECL for 5 minutes and imaged using a Bio-Rad Gel Doc. The brightness/contrast was adjusted in FIJI and the area under the curve of each lane was quantified. The phosphorylated STAT-6 to STAT-6 ratio was calculated and normalized to the amount of total STAT-6. The data was plotted and analyzed using GraphPad Prism 9.2.0′."}, "[2]": {"tested_on": "IL-4 induced STAT-6 phosphorylation in Ramos B lymphocytes (type I IL-4 receptor)", "experiment": "Ramos STAT-6 phosphorylation assay (western blot)", "format": "cell-based", "method": "Ramos cells were purchased from ATCC and maintained in RMPI-1640 with 10% heat-inactivated Fetal Bovine Serum. Cells used for assays were between passages 4 and 8. […] Undiluted cell lysates were run SDS-PAGE and transferred to Immunoblot PVDF membrane using Biorad equipment. Membranes were incubated with 1:1000 primary antibody overnight at 4° C. Membranes were then incubated with 1:50,000 dilution secondary for 1 hour at room temperature. Membranes were then exposed to Femto ECL for 5 minutes and imaged using a Bio-Rad Gel Doc. The brightness/contrast was adjusted in FIJI and the area under the curve of each lane was quantified. The phosphorylated STAT-6 to STAT-6 ratio was calculated and normalized to the amount of total STAT-6. The data was plotted and analyzed using GraphPad Prism 9.2.0."}, "IL-4 [3]": {"target": "T2, IL-4 (Homo sapiens, UniProt P05112)", "T2 construct": "purchased Acros Biosystems IL4-H4218; host or cells: HEK-293", "T2 sequence (P05112 25-153)": "T1 sequence (P05112 25-153)", "experiment": "Surface plasmon resonance binding to IL-4", "method": "Surface plasmon resonance was performed on a Biacore S200. Series S Sensor chips were purchased from Cytiva. The running buffer was 1×PBS pH 7.40 with 2% DMSO and 0.1% Tween-20 and the flow rate was kept at 50 μL/min. The SA chip was first activated with 120 μL of 1 M NaCl in 50 mM NaOH followed by a wash of 50% Isopropanol in 1 M NaCl and 50 mM NaOH, 200 μl of a 1 mg/ml solution of Avi-tagged IL-4 in DMSO-free buffer was used to immobilize 7073 RU on the chip surface using the BiacoreS200 software, 100 μl of 50 mM Biocytin was used to block all biotin slides on the sensor chip with manual setting. The system was then primed with running buffer for 7 minutes. […] Analog 15 was diluted in the running buffer and injected for 300 seconds cycles, in an ascending order. The dissociation phase was 600 seconds long. Sensorgram figures were created by exporting the raw data and plotting in Graphpad Prism 9.2.0^48."}, "B16-F10 cells": {"tested_on": "B16-F10 cells", "experiment": "In vitro cytotoxicity (CellTiter-Glo)", "format": "cell-based", "conditions": "up to 25 μM", "method": "CellTiter-Glo 2.0 purchased from Promega G9242) was used to measure cell viability with the Victor-3 plate reader (PerkinElmer) after 24 hours in concentrations of compound up to 25 μM. Vehicle was used as a negative control for both cytotoxicity and growth inhibition, methanol was used as a positive control for cytotoxicity, and 1% FBS was used as a positive control for growth inhibition."}, "[4]": {"experiment": "Mouse hepatic microsome stability", "format": "in vitro ADME", "conditions": "mouse hepatic microsomes"}, "Mouse plasma stability": {"experiment": "Mouse plasma stability", "format": "in vitro ADME"}, "Human plasma stability": {"experiment": "Human plasma stability", "format": "in vitro ADME"}, "[5]": {"experiment": "PAMPA membrane permeability", "format": "in vitro ADME", "conditions": "18 hours incubation", "method": "PVDF membranes purchased from Bioassay Systems PAMPA-096 were coated with 5 μL of 4% Phosphatidylcholine (Lecithin, MP Biomedicals 0210214780) in dodecane. […] Permeability was calculated by Pv=C×ln (1−ODA/ODE) cm/s, where ODA is the absorbance of acceptor solution minus blank, and ODE the absorbance of the equilibrium standard minus blank, and C=7.72×10^−6 using an 18-hour incubation time."}, "IL-4 [6]": {"target": "T2, IL-4", "experiment": "HEK-Blue IL-4/IL-13 reporter assay, IL-4 inhibition", "format": "cell-based", "conditions": "control: cells with 10 μM compound only, no IL-4"}}, "note": "Where two headings read alike, the source gives them in different places.", "data": [{"smiles": "N#Cc1c(-c2ccc(O)c(O)c2)cc(-c2ccccc2)[nH]c1=N", "note": "[Compound 15, 4-(3,4-dihydroxyphenyl)-2-imino-6-phenyl-1,2-dihydropyridine-3-carbonitrile]", "values": [{"measurement": "EC50", "setting": "IL-13", "value": 4.49, "unit": "µM"}, {"measurement": "ΔTm at 2 µM", "setting": "soluble IL-4; IL-4 shift minus IL-2 shift, 2 μM, read-out: thermal shift for IL-4 stronger than for IL-2 by", "value": "> 1", "unit": "°C"}, {"measurement": "ΔTm at 2 µM", "setting": "soluble IL-4; soluble IL-4, 2 μM compound, 0.1% DMSO, read-out: Tm shift", "value": 1.75, "unit": "°C"}, {"measurement": "EC50", "setting": "[1]; Homo sapiens, THP-1 monocytes, western blot, normalized to STAT-6, read-out: EC50 of inhibition of STAT-6 phosphorylation", "value": 49.6, "unit": "nM"}, {"measurement": "STAT-6 levels", "setting": "[1]; total STAT-6, THP-1 cells", "value": "not impacted"}, {"measurement": "inhibition at 0.5 µM", "setting": "[2]; Homo sapiens, Ramos, read-out: percent inhibition of STAT-6 phosphorylation", "value": 61.9, "unit": "%"}, {"measurement": "inhibition of phosphorylation of STAT-6", "setting": "[2]; Ramos B lymphocytes, 50 nM", "value": "minimum inhibition"}, {"measurement": "kd", "setting": "IL-4 [3]; SPR kinetic binding constant", "value": "8.34 e−04 s^−1"}, {"measurement": "Kd", "setting": "IL-4 [3]; SPR steady-state affinity analysis", "value": 31.9, "unit": "nM"}, {"measurement": "kon", "setting": "IL-4 [3]; pH 7.4, read-out: ka", "value": 26200, "unit": "M⁻¹ s⁻¹"}, {"measurement": "Cytotoxicity in B16-F10 cells (24 hours)", "setting": "B16-F10 cells", "value": "no toxicity"}, {"measurement": "Cytotoxicity in B16-F10 cells (24 hours)", "setting": "B16-F10 cells; listed as Analog 15", "value": "n.s. < 25 μM"}, {"measurement": "Mouse hepatic microsome stability (% remaining after 1 hour)", "setting": "[4]", "value": 30.3, "unit": "%"}, {"measurement": "Mouse plasma stability (% remaining after 3 hours)", "setting": "Mouse plasma stability", "value": 94.3, "unit": "%"}, {"measurement": "Human plasma stability (% remaining after 3 hours)", "setting": "Human plasma stability", "value": 97.4, "unit": "%"}, {"measurement": "Papp at 18 h, 100 μM", "setting": "[5]", "value": 12.7, "unit": "×10⁻⁶ cm/s"}, {"measurement": "Abs650", "setting": "IL-4 [6]", "value": "0.06345 ± 0.001036"}]}]}
